Results on 16 molecules are retold here after patent US10421765B2, “Tetrahydropyrido[4,3-d]pyrimidine inhibitors of ATR kinase” (Board of Regents, The University of Texas System, priority 2017, dated 2019).

Where two headings read alike, the source gives them in different places.

The test system of test [1] is ATR-driven phosphorylation of Chk1 kinase at Serine 345 in HT-29 colorectal adenocarcinoma cells. Description: pCHK1 cellular assay (CHK1 p-Ser345 AlphaScreen SureFire). In kind it is cell-based. The following applies: 4-nitroquinoline N-oxide 12 uM, read-out: Cell IC50 (pCHK1 IC50 values). The protocol:
Inhibitors of ATR kinase are effective at inhibiting the ATR-driven phosphorylation of the downstream target Chk1 kinase at Serine 345, following the addition of 4-nitroquinoline N-oxide, a chemical used to induce DNA damage. Cellular IC50 for the inhibitors of ATR described herein were measured in HT-29 colorectal adenocarcinoma cells. HT-29 cells were routinely maintained in McCoy's 5A media (ATCC Catalog #30-2007) supplemented with 10% fetal bovine serum (Sigma Catalog #F2442) and 1× Penicillin-Streptomycin (Gibco Catalog #15140-122) using a humidified incubator (37° C., 5% CO2, and ambient O2).
In preparation for the CHK1 (p-Ser345) ALPHASCREEN® SUREFIRE® assay, cells were harvested and resuspended in McCoy's 5A media supplemented with 10% fetal bovine serum and 1× Penicillin-Streptomycin. Cells were seeded onto a 384-well black CELLSTAR® Tissue Culture Plate (VWR Catalog #89085-314) at a density of 13,000 cells/well in a volume of 40 uL. The microplate was incubated overnight (approximately 20 hours) at 37° C. with 5% CO2 and ambient O2. Stock solutions of the test compounds were prepared in 100% DMSO (Sigma, Catalog #D2650) and serially diluted 1:3 using 100% DMSO. Compounds were additionally diluted 1:33 in culture medium, and 10 ul/well were transferred to the tissue culture plate. Following the compound addition the microplate was incubated at 37° C. for 90 minutes. 10 uL of 4-nitroquinoline N-oxide (Sigma Aldrich Catalog #N8141-1G) diluted in media (final concentration 12 uM) were added to the tissue culture plate followed by a 120 minute incubation at 37° C. The cells were then washed with PBS and lysed using 10 uL/well SUREFIRE® Kit lysis buffer diluted to 1× in water (PerkinElmer Catalog #TGRCHK1S50K), with mixing on an orbital shaker at 500 rpm for 20 min at RT. Lysates were frozen at −20° C. overnight.
4 uL/well of lysate was then transferred from the tissue culture plate to a 384-well, white, low volume, PROXIPLATE™ (PerkinElmer Catalog #600828). 5 uL/well of the acceptor bead solution, prepared by diluting SUREFIRE® Kit activation buffer (PerkinElmer Catalog #TGRCHK1S50K) and ALPHASCREEN® Protein A acceptor beads (PerkinElmer Catalog #6760617R) in SUREFIRE® Kit reaction buffer (PerkinElmer Catalog #TGRCHK1S50K), were added to the lysates under subdued light and incubated at room temperature for 120 min. 2 uL/well of the donor bead solution, prepared by diluting ALPHASCREEN® Streptavidin donor beads (PerkinElmer Catalog #6760617R) in SUREFIRE® Kit dilution buffer (PerkinElmer Catalog #TGRCHK1S50K), were added under subdued light and incubated at room temperature for an addition 120 minutes. The pCHK1 ALPHASCREEN® signal was measured using an ENVISION® plate reader (PerkinElmer). IC50 values were calculated using a four-parameter logistic curve fit using Genedata Screener software. Percent of control for each compound concentration was calculated by the following formula: 100*(Compound−Min)/(Max−Min) where “Max” is the high control, DMSO, and “Min” is the low control, 5 uM ATR inhibitor.

Another test concerns the target ATR/ATRIP complex (Homo sapiens (Human), UniProt Q13535). Description: ATR/ATRIP enzymatic assay (Caliper-based). Type of test: biochemical. To be noted: FAM-labeled RAD17 peptide, ATP. Here is the method: Human full-length FLAG-TEV-ATR and His6-ATRIP were co-expressed in HEK293 cells. The cell pellet (20 g) was harvested and lysed in 100 mL of lysis buffer (20 mM Tris-HCl pH 7.5 at room temperature, 137 mM NaCl, 10% glycerol, 1 mM DTT, 1% (v/v) Tween-20, 0.1% (v/v) NP-40, complete protease inhibitor cocktail tablets, phosphatase inhibitor cocktail tablets, 2 mM MgCl2, 0.2 mM EDTA, and 1 mM ATP). After sonication and centrifugation, the supernatant was incubated at 4° C. for 3 hours with 1 mL of anti-FLAG resin (Sigma catalog #A2220) that had been pre-equilibrated in buffer A (20 mM Tris-HCl pH 7.5 at room temperature, 137 mM NaCl, 10% glycerol, 1 mM DTT, 2 mM MgCl2, and 0.2 mM EDTA). The sample was loaded into a column, and then washed with buffer A three times. Protein was subsequently eluted with 2 ml of buffer B (buffer A+200 μg/ml 3×FLAG peptide).
The ability of new chemical matter to inhibit the ATR catalytic activity in this ATR/ATRIP complex was assessed using a Caliper-based assay. A 2x enzyme solution (i.e., 4 nM enzyme) was prepared using 1× Kinase Reaction Buffer (25 mM HEPES pH 8, 0.0055% Brij-35, 10 mM MnCl2, and 1 mM DTT). A 2x peptide solution was then prepared consisting of 10 uM FAM-labeled RAD17 peptide (GL Biochem, catalog #524315) in 1× Kinase Reaction Buffer supplemented with 2 μM ATP. 10 μL of the 2× enzyme solution was transferred to an assay plate containing 60 nL of test compound (from a 3× serial dilution) in 100% DMSO. Following a 30 minute incubation at 28° C., 10 μL of the 2× peptide solution was then transferred to the same assay plate. The reaction was allowed to incubate at 28° C. for 6 hours. After adding […] of stop buffer (100 mM HEPES pH 7.5, 0.015% Brij-35, 0.2% Coating-3 Reagent (PerkinElmer, catalog #PN760050), and 50 mM EDTA), data were collected on a Caliper instrument. Conversion values were converted to inhibition values via the following equation: % inhibition=(max−conversion)/(max−min)*100, whereby “max” corresponds to the DMSO control and “min” corresponds to the low control. IC50 values were calculated using the following equation in XLFit: Y=Bottom+(Top−Bottom)/1+(IC50/X)^HillSlope).

Setting [2] is: Homo sapiens, HT-29, HT-29 cells.
Where [3] appears, read: read-out: ATR/ATRIP Enzyme IC50.
[4] abbreviates: estimated range, read-out: ATR/ATRIP Enzyme IC50 (estimated class).

ATR/ATRIP complex, sequence (Q13535 whole entry): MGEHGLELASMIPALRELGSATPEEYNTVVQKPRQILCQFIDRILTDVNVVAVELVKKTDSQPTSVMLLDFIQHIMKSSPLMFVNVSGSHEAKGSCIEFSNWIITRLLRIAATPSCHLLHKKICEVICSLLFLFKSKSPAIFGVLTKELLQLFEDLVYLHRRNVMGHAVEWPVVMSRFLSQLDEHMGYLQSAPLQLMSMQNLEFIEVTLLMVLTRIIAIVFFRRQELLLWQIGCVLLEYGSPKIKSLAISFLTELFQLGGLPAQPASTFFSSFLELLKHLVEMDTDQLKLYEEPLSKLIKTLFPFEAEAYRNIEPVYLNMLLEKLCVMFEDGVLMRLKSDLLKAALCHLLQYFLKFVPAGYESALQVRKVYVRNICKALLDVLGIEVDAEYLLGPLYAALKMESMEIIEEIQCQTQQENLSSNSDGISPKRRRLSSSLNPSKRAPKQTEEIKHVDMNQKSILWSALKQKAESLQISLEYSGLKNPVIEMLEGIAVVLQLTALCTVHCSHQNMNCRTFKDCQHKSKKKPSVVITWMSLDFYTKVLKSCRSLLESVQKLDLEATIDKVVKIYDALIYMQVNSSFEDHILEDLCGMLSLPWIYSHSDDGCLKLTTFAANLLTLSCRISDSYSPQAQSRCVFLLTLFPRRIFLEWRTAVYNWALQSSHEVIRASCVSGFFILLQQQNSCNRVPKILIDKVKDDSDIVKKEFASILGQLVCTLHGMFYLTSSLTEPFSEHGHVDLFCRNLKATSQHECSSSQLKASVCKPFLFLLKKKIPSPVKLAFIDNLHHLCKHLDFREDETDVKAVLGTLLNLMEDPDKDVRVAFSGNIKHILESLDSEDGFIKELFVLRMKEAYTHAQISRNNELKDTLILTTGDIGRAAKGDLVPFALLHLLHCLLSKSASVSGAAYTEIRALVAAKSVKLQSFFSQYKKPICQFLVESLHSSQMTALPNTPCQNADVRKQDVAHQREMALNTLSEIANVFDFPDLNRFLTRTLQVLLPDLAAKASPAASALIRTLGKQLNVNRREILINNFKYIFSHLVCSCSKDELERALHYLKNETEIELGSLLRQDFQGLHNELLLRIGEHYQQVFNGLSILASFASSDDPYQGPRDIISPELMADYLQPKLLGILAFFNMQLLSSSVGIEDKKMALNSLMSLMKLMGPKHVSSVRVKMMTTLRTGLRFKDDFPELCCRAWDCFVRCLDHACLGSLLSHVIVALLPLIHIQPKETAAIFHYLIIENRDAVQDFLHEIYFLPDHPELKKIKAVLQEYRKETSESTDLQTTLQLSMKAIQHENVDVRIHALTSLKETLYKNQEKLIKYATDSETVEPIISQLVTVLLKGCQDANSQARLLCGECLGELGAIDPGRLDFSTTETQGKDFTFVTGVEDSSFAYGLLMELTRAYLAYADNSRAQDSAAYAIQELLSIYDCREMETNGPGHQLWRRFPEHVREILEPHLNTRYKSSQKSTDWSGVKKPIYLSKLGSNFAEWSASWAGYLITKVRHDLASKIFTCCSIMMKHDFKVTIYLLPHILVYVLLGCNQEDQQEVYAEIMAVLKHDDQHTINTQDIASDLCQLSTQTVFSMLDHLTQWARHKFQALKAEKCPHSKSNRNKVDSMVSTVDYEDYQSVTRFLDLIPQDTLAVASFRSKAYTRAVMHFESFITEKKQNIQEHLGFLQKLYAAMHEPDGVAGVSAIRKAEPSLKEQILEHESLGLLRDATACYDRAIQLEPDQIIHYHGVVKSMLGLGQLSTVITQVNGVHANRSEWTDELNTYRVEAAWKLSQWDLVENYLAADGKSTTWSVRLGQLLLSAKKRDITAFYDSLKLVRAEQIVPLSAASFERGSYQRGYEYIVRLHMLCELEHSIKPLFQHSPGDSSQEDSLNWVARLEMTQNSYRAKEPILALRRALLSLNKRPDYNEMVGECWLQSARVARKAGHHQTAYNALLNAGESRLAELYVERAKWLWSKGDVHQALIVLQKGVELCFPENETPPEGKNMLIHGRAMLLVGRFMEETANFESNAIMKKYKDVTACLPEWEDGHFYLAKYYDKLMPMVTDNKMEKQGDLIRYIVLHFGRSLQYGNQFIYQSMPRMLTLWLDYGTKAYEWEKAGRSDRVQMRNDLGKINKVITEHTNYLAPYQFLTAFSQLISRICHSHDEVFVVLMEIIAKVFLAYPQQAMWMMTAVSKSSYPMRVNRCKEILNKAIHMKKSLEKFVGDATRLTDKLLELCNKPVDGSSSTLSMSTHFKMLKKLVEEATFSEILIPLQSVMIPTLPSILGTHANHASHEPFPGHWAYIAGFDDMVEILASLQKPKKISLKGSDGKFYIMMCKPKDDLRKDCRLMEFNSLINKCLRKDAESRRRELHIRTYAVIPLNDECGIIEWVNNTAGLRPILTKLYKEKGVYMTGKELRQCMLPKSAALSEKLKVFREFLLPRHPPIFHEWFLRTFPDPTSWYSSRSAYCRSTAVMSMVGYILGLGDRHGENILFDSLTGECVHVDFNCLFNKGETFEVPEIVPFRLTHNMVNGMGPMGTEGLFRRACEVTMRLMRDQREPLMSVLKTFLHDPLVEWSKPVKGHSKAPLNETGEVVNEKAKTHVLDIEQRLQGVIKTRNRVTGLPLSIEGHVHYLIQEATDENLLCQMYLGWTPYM
ATR/ATRIP complex, sequence (Q8WXE1 whole entry partner): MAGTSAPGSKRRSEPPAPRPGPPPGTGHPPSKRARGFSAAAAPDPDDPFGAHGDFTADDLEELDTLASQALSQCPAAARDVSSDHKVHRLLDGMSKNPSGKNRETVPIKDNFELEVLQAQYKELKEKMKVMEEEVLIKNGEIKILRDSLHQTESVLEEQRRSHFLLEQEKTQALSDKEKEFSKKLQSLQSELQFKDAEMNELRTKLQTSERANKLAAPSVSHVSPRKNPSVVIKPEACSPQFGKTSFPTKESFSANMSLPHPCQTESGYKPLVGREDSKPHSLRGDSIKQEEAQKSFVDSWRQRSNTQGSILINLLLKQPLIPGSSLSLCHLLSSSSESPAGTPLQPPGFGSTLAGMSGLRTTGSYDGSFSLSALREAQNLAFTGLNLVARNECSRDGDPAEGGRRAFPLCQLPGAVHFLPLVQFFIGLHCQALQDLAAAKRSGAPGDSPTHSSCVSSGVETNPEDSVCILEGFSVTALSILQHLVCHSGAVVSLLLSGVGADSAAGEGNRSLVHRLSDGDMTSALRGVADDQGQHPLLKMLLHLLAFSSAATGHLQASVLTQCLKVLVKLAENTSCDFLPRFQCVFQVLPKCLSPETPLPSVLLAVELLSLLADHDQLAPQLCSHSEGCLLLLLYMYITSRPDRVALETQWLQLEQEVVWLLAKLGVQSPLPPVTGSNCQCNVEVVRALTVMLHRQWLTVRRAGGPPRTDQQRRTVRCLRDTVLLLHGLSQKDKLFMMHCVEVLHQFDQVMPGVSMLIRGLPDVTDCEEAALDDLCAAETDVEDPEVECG

For `C[C@@H]1Cc2ncnc(C3=CCC(NS(C)(=O)=O)CC3)c2CN1c1cc(Cl)nc2[nH]ccc12` (stereo partly drawn) [Example 73, N-(4-((R)-6-(6-chloro-1H-pyrrolo[2,3-b]pyridin-4-yl)-7-methyl-5,6,7,8-tetrahydropyrido[4,3-d]-pyrimidin-4-yl)cyclohex-3-en-1-yl)methane-sulfonamide], the values for the IC50 (in test [1] (setting [2]); at ATR/ATRIP complex (setting [3])) were 18 nM and 111 nM, respectively.

With `C[C@@H]1Cc2ncnc(N3CCCC(S(C)(=O)=O)C3)c2CN1c1cc(Cl)nc2[nH]ccc12` (stereo partly drawn) [Example 65, (7R)-6-(6-chloro-1H-pyrrolo[2,3-b]pyridin-4-yl)-7-methyl-4-(3-(methylsulfonyl)-piperidin-1-yl)-5,6,7,8-tetrahydropyrido[4,3-d]-pyrimidine], the IC50 is 8 nM in test [1] (setting [2]) and 159 nM at ATR/ATRIP complex (setting [3]).

Consider `C[C@@H]1Cc2ncnc(N3CC[C@@H](S(C)(=O)=O)C3)c2CN1c1cc(Cl)nc2[nH]ccc12` [Example 87, (R)-6-(6-chloro-1H-pyrrolo[2,3-b]pyridin-4-yl)-7-methyl-4-((R)-3-(methylsulfonyl)-pyrrolidin-1-yl)-5,6,7,8-tetrahydropyrido[4,3-d]-pyrimidine], for which the IC50 stood at 20 nM in test [1] (setting [2]) and 237 nM on ATR/ATRIP complex (setting [3]).

As to `C[C@@H]1Cc2ncnc(N3CC(C(C)(C)O)C3)c2CN1c1cc(Cl)nc2[nH]ccc12` [Example 33, 2-{1-[(7R)-6-{6-chloro-1H-pyrrolo[2,3-b]pyridin-4-yl}-7-methyl-5H,6H,7H,8H-pyrido[4,3-d]pyrimidin-4-yl]azetidin-3-yl}propan-2-ol], the IC50 in test [1] (setting [2]) came to 15 nM; on ATR/ATRIP complex (setting [3]) it was 183 nM.

As to `Cc1cc(N2Cc3c(ncnc3C3CCN(S(C)(=O)=O)CC3)C[C@H]2C)c2cc[nH]c2n1` [Example 56, (R)-7-methyl-6-(6-methyl-1H-pyrrolo[2,3-b]pyridin-4-yl)-4-(1-(methylsulfonyl)piperidin-4-yl)-5,6,7,8-tetrahydropyrido[4,3-d]pyrimidine], the IC50 in test [1] (setting [2]) amounted to 52 nM; on ATR/ATRIP complex (setting [3]), 773 nM.

For the molecule `CCOc1cc(N2Cc3c(ncnc3C3CCN(S(C)(=O)=O)CC3)C[C@H]2C)c2cc[nH]c2n1` [Example 54, (R)-6-(6-ethoxy-1H-pyrrolo[2,3-b]pyridin-4-yl)-7-methyl-4-(1-(methylsulfonyl)piperidin-4-yl)-5,6,7,8-tetrahydropyrido[4,3-d]pyrimidine], the IC50 amounted to 10 nM in test [1] (setting [2]) and 123 nM at ATR/ATRIP complex (setting [3]).

As for `C[C@@H]1Cc2ncnc(N3CCC[C@@H](C(C)(C)O)C3)c2CN1c1cc(Cl)nc2[nH]ccc12` [Example 70, 2-((R)-1-((R)-6-(6-chloro-1H-pyrrolo[2,3-b]-pyridin-4-yl)-7-methyl-5,6,7,8-tetrahydropyrido-[4,3-d]pyrimidin-4-yl)-piperidin-3-yl)propan-2-ol], the IC50 in test [1] (setting [2]) was found to be 10 nM; on ATR/ATRIP complex (setting [3]), 87 nM.

In the case of `C[C@@H]1Cc2ncnc(N3CCN(S(C)(=O)=O)C(C)(C)C3)c2CN1c1cc(Cl)nc2[nH]ccc12` [Example 21, 4-[(7R)-6-{6-chloro-1H-pyrrolo[2,3-b]pyridin-4-yl}-7-methyl-5H,6H,7H,8H-pyrido[4,3-d]pyrimidin-4-yl]-1-methanesulfonyl-2,2-dimethylpiperazine], the IC50 is 57 nM in test [1] (setting [2]) and 1000 to 10000 nM on ATR/ATRIP complex (setting [4]).

On to `CNC(=O)C1CCN(c2ncnc3c2CN(c2cc(Cl)nc4[nH]ccc24)[C@H](C)C3)CC1` [Example 76, (R)-1-(6-(6-chloro-1H-pyrrolo[2,3-b]pyridin-4-yl)-7-methyl-5,6,7,8-tetrahydropyrido[4,3-d]-pyrimidin-4-yl)-N-methylpiperidine-4-carboxamide], for which the IC50 in test [1] (setting [2]) was 61 nM; at ATR/ATRIP complex (setting [3]) it was 708 nM.

For `C[C@@H]1Cc2ncnc(N3CCC4(CC3)CNC(=O)O4)c2CN1c1cc(Cl)nc2[nH]ccc12` [Example 31, 8-[(7R)-6-{6-chloro-1H-pyrrolo[2,3-b]pyridin-4-yl}-7-methyl-5H,6H,7H,8H-pyrido[4,3-d]pyrimidin-4-yl]-1-oxa-3,8-diazaspiro[4.5]decan-2-one], the IC50 in test [1] (setting [2]) worked out at 72 nM; at ATR/ATRIP complex (setting [3]) it was 434 nM.

`C[C@@H]1Cc2ncnc(C3CCCN(S(C)(=O)=O)C3)c2CN1c1ccnc2[nH]ccc12` (single isomer, unassigned) [Example 50a]: the IC50 in test [1] (setting [2]) amounted to 55 nM; at ATR/ATRIP complex (setting [3]), 1200 nM.

With `C[C@@H]1Cc2ncnc(C3CCN(S(C)(=O)=O)CC3)c2CN1c1cc(C#N)nc2[nH]ccc12` [Example 98, (R)-4-(7-methyl-4-(1-(methylsulfonyl)piperidin-4-yl)-7,8-dihydro-pyrido[4,3-d]pyrimidin-6(5H)-yl)-1H-pyrrolo-[2,3-b]pyridine-6-carbonitrile], the results for the IC50 (in test [1] (setting [2]); on ATR/ATRIP complex (setting [3])) were 265 nM and 336 nM, respectively.

Regarding `CS(=O)(=O)N1CCC(c2ncnc3c2CN(c2ccnc4[nH]ccc24)[C@H](CF)C3)CC1` [Example 52b, (S)-7-(fluoromethyl)-4-(1-(methylsulfonyl)piperidin-4-yl)-6-(1H-pyrrolo[2,3-b]pyridin-4-yl)-5,6,7,8-tetrahydropyrido[4,3-d]pyrimidine], the IC50 in test [1] (setting [2]) stood at 209 nM; at ATR/ATRIP complex (setting [3]), 878 nM.

As to `C[C@@H]1Cc2ncnc(C3CCN(S(C)(=O)=O)CC3)c2CN1c1ccnc2[nH]ncc12` [Example 42, (R)-7-methyl-4-(1-(methylsulfonyl)piperidin-4-yl)-6-(1H-pyrazolo[3,4-b]pyridin-4-yl)-5,6,7,8-tetrahydropyrido[4,3-d] pyrimidine], the values for the IC50 (in test [1] (setting [2]); on ATR/ATRIP complex (setting [4])) were 3010 nM and 1000 to 10000 nM, respectively.

On to `C[C@@H]1Cc2ncnc([C@H]3CCN(S(C)(=O)=O)C(C)(C)C3)c2CN1c1ccnc2[nH]ccc12` (single isomer, unassigned) [Example 48b], for which the IC50 in test [1] (HT-29 cells) worked out at 79 nM; on ATR/ATRIP complex (setting [3]), 435 nM.

For the molecule `CS(=O)(=O)N1CCC(c2ncnc3c2CN(c2ccnc4[nH]ccc24)[C@H](C(F)F)C3)CC1` [Example 53b], the IC50 stood at 485 nM in test [1] (HT-29 cells) and 2420 nM at ATR/ATRIP complex (setting [3]).
